Test [1] deals with HMPV clinical isolate TN/1501/A1. Description: HMPV antiviral assay Method-B (clinical isolate TN/1501/A1 in LLC-MK2 cells, ATP-Lite readout). The test is classed as cell-based, Human metapneumovirus (HMPV). The settings on record: human metapneumovirus, LLC-MK2, 144 h, hMPV WT1501 (clinical isolate TN/1501/A1), 6 days. The gist of the method:
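LLC-MK2 cells infected in suspension with TN/1501/A1 at MOI 0.014 in serum-free medium with 2 μg/mL TPCK-trypsin (final), incubated 6 days at 37° C. Compounds tested in duplicate, 10-point 3-fold dilutions from 10 μM. Cell health read by ATP-Lite luminescence, normalised to virus-only and cells-only controls; EC50 by four-parameter logistic fit.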

The subject of test [2] is genotype A, "Long" strain RSV. The experiment in a line: RSV-A assay (CPE protection in Hep-2 cells, ATPlite readout). Format: cell-based, Human respiratory syncytial virus (HRSV). The conditions noted are these: human respiratory syncytial virus, genotype A “Long” strain RSV, MOI 0.1, CPE protection, read-out: Human RSV-A (“Long”). An outline of the steps:
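Hep-2, 8,000 cells/well, MOI 0.1 (PFU- or TCID50-based); 2-fold compound series, duplicates; 5 d incubation; ATPlite luminescence readout; EC50.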
A general note: In ATP-based viability assays light output follows the ATP content of the culture.

As to `COc1cc(C(=O)NC[C@](O)(c2cc3c(c(-c4cc(Cl)c(F)c(Cl)c4)n2)OC[C@]3(C)C(N)=O)C(F)(F)F)cc2cn(C(F)F)nc12` [Example 670], the EC50 in test [1] is greater than 500 nM; in test [2] it was less than 200 nM.

As to `COc1cc(C(=O)NC[C@](O)(c2cc3c(c(-c4cc(Cl)c(F)c(Cl)c4)n2)OC[C@]3(C)C(N)=O)C(F)(F)F)cc2cn(C3(F)CC3)nc12` [Example 671], the EC50 is greater than 500 nM in test [1] and less than 200 nM in test [2].

On to `COc1cc(C(=O)NC[C@](O)(c2cc3c(c(-c4cc(Cl)c(F)c(Cl)c4)n2)OC[C@]3(C)C(N)=O)C(F)(F)F)cc2cc(Br)cnc12` [Example 672], for which the figures for the EC50 in test [1] and in test [2] were greater than 500 nM and less than 200 nM, respectively.

For `C[C@]1(C(N)=O)COc2c1cc([C@@](O)(CNC(=O)c1cc(Cl)c3nn(C4CC4)cc3c1)C(F)(F)F)nc2-c1cc(Cl)c(F)c(Cl)c1` [Example 673], the results for the EC50 in test [1] and in test [2] were greater than 500 nM and less than 200 nM, respectively.

As for `COc1cc(C(=O)NC[C@](O)(c2cc3c(c(-c4cc(Cl)c(F)c(Cl)c4)n2)OC[C@]3(C)C(N)=O)C(F)(F)F)cc2cc(Cl)c(C)nc12` [Example 674], the EC50 in test [1] was greater than 500 nM; in test [2], less than 200 nM.

On to `Cc1cnc2c(Cl)cc(C(=O)NC[C@](O)(c3cc4c(c(-c5cc(Cl)c(F)c(Cl)c5)n3)OC[C@]4(C)C(N)=O)C(F)(F)F)cc2c1` [Example 675], for which the values for the EC50 in test [1] and in test [2] were greater than 500 nM and less than 200 nM, respectively.

As for `COc1cc(C(=O)NC[C@](O)(c2cc3c(c(-c4ccc(Cl)c(F)c4F)n2)OC[C@]3(C)C(N)=O)C2CC2)cc2cn(C3CC3)nc12` [Example 683], the EC50 is less than 500 nM in test [1] and less than 200 nM in test [2].

`COc1cc(C(=O)NC[C@](O)(c2cc3c(c(-c4ccc(Cl)c(F)c4F)n2)OC[C@]3(C)C(N)=O)C2CC2)cc2cn(C(F)F)nc12` [Example 684]: the values for the EC50 in test [1] and in test [2] were less than 500 nM and less than 200 nM, respectively.

Regarding `COc1cc(C(=O)NC[C@](O)(c2cc3c(c(-c4ccc(Cl)c(F)c4F)n2)OC[C@]3(C)C(N)=O)C2CC2)cc2cn(C3(F)CC3)nc12` [Example 685], the EC50 is less than 500 nM in test [1] and less than 200 nM in test [2].

Turning to `C[C@]1(C(N)=O)COc2c1cc([C@@](O)(CNC(=O)c1cc(Cl)c3nn(C4CC4)cc3c1)C1CC1)nc2-c1ccc(Cl)c(F)c1F` [Example 686], the EC50 in test [1] is less than 500 nM; in test [2] it was less than 200 nM.

As to `COc1cc(C(=O)NC[C@](O)(c2cc3c(c(-c4ccc(Cl)c(F)c4F)n2)OC[C@]3(C)C(N)=O)C2CC2)cc2cc(Cl)c(C)nc12` [Example 687], the results for the EC50 in test [1] and in test [2] were less than 500 nM and less than 200 nM, respectively.

Consider `Cc1cnc2c(Cl)cc(C(=O)NC[C@](O)(c3cc4c(c(-c5ccc(Cl)c(F)c5F)n3)OC[C@]4(C)C(N)=O)C3CC3)cc2c1` [Example 688], for which the EC50 in test [1] was less than 500 nM; in test [2], less than 200 nM.

As to `COc1cc(C(=O)NC[C@](O)(c2cc3c(c(-c4ccc(F)cc4)n2)OC[C@]3(C)C(N)=O)C(F)(F)F)n2ccnc2c1` [Example 691], the results for the EC50 in test [1] and in test [2] were greater than 500 nM and less than 200 nM, respectively.

Regarding `COc1ccc(C(=O)NC[C@](O)(c2cc3c(c(-c4ccc(F)cc4)n2)OC[C@]3(C)C(N)=O)C(F)(F)F)c2cc[nH]c12` [Example 693], the EC50 in test [1] was greater than 500 nM; in test [2], less than 200 nM.

Regarding `COc1ccc(C(=O)NC[C@](O)(c2cc3c(c(-c4ccc(F)cc4)n2)OC[C@]3(C)C(N)=O)C(F)(F)F)n2cc(C)nc12` [Example 694], the values for the EC50 in test [1] and in test [2] were greater than 500 nM and less than 200 nM, respectively.

With `COc1ccc(C(=O)NC[C@](O)(c2cc3c(c(-c4ccc(F)cc4)n2)OC[C@]3(C)C(N)=O)C(F)(F)F)n2cc(C3CC3)nc12` [Example 695], the EC50 was greater than 500 nM in test [1] and less than 200 nM in test [2].

On to `COc1ccc(C(=O)NC[C@](O)(c2cc3c(c(-c4ccc(F)cc4)n2)OC[C@]3(C)C(N)=O)C(F)(F)F)c2[nH]ccc12` [Example 696], for which the EC50 was greater than 500 nM in test [1] and less than 200 nM in test [2].

On to `COc1cc(C(=O)NC[C@](O)(c2cc3c(c(-c4ccc5c(c4)OC(F)(F)O5)n2)OC[C@]3(C)C(N)=O)C(F)(F)F)cc2cc(C3CC3)nn12` [Example 697], for which the EC50 is less than 500 nM in test [1] and less than 200 nM in test [2].

For `C[C@]1(C(N)=O)COc2c1cc([C@@](O)(CNC(=O)c1cc(F)c3nc(N)sc3c1)C(F)(F)F)nc2-c1ccc2c(c1)OC(F)(F)O2` [Example 698], the EC50 was greater than 500 nM in test [1] and less than 200 nM in test [2].

Take `COc1ccc(C(=O)NC[C@](O)(c2cc3c(c(-c4ccc(F)cc4)n2)OC[C@]3(C)C(N)=O)C(F)(F)F)n2ccnc12` [Example 699]: the EC50 was greater than 500 nM in test [1] and less than 200 nM in test [2].

On to `COc1ccc(C(=O)NC[C@](O)(c2cc3c(c(-c4ccc5c(c4)OC(F)(F)O5)n2)OC[C@]3(C)C(N)=O)C(F)(F)F)n2ccnc12` [Example 700], for which the EC50 in test [1] was greater than 500 nM; in test [2], less than 200 nM.

In the case of `C[C@]1(C(N)=O)COc2c1cc([C@@](O)(CNC(=O)c1ccc(OC3CC3)c3nccn13)C(F)(F)F)nc2-c1ccc(F)cc1` [Example 702], the figures for the EC50 in test [1] and in test [2] were greater than 500 nM and less than 200 nM, respectively.

For `COc1cc(C(=O)NC[C@](O)(c2cc3c(c(-c4ccc(F)c(Cl)c4)n2)OC[C@]3(C)C(N)=O)C2CC2)cc2cc(C3CC3)nn12` [Example 703], the EC50 was less than 500 nM in test [1] and less than 200 nM in test [2].

With `C[C@]1(C(N)=O)COc2c1cc([C@@](O)(CNC(=O)c1cc(F)c3nc(N)sc3c1)C1CC1)nc2-c1ccc(F)c(Cl)c1` [Example 704], the results for the EC50 in test [1] and in test [2] were less than 500 nM and less than 200 nM, respectively.

As to `COc1cc(C(=O)NC[C@](O)(c2cc3c(c(-c4ccc(F)cc4)n2)OC[C@]3(C)C(N)=O)C2(F)CC2)cc2cn(C3CC3)nc12` [Example 705], the EC50 was less than 500 nM in test [1] and less than 200 nM in test [2].

On to `COc1cc(C(=O)NC[C@](O)(c2cc3c(c(-c4ccc(F)cc4)n2)OC[C@]3(C)C(N)=O)C2(F)CC2)cc2cc(C3CC3)nn12` [Example 706], for which the EC50 was less than 500 nM in test [1] and less than 200 nM in test [2].

As to `COc1cc(C(=O)NC[C@](O)(c2cc3c(c(-c4ccc(F)cc4)n2)OC[C@]3(C)C(N)=O)C2(F)CC2)cc2cc(Cl)c(C)nc12` [Example 707], the EC50 in test [1] is less than 500 nM; in test [2], less than 200 nM.

Turning to `COc1cc(C(=O)NC[C@](O)(c2cc3c(c(-c4ccc(F)cc4)n2)OC[C@]3(C)C(N)=O)C2CCC2)cc2cn(C3CC3)nc12` [Example 708], the EC50 in test [1] was less than 500 nM; in test [2], less than 200 nM.

Take `C[C@]1(C(N)=O)COc2c1cc([C@@](O)(CNC(=O)c1cc(F)c3nc(N)sc3c1)C1(F)CC1)nc2-c1ccc(F)cc1` [Example 709]: the EC50 was greater than 500 nM in test [1] and less than 200 nM in test [2].

Regarding `Cc1cnc2c(OC(F)F)cc(C(=O)NC[C@](O)(c3cc4c(c(-c5ccc(F)cc5)n3)OC[C@]4(C)C(N)=O)C3(F)CC3)cc2c1` [Example 710], the results for the EC50 in test [1] and in test [2] were less than 500 nM and less than 200 nM, respectively.

In the case of `COc1cc(C(=O)NC[C@](O)(c2cc3c(c(-c4ccc(F)cc4)n2)OC[C@]3(C)C(N)=O)C2(F)CC2)cc2cn(C(F)F)nc12` [Example 711], the EC50 was less than 500 nM in test [1] and less than 200 nM in test [2].

Regarding `COc1cc(C(=O)NC[C@](O)(c2cc3c(c(-c4ccc5c(c4)OC(F)(F)O5)n2)OC[C@]3(C)C(N)=O)C2(F)CC2)cc2cn(C3CC3)nc12` [Example 712], the results for the EC50 in test [1] and in test [2] were less than 500 nM and less than 200 nM, respectively.

As to `Cc1cnc2c(OC(F)F)cc(C(=O)NC[C@](O)(c3cc4c(c(-c5ccc6c(c5)OC(F)(F)O6)n3)OC[C@]4(C)C(N)=O)C3(F)CC3)cc2c1` [Example 713], the EC50 in test [1] is less than 500 nM; in test [2], less than 200 nM.

As to `COc1cc(C(=O)NC[C@](O)(c2cc3c(c(-c4ccc(F)c(Cl)c4)n2)OC[C@]3(C)C(N)=O)C2(F)CC2)cc2cn(C3CC3)nc12` [Example 714], the EC50 in test [1] was less than 500 nM; in test [2], less than 200 nM.

For the compound `Cc1cnc2c(OC(F)F)cc(C(=O)NC[C@](O)(c3cc4c(c(-c5ccc(F)c(Cl)c5)n3)OC[C@]4(C)C(N)=O)C3(F)CC3)cc2c1` [Example 715], the EC50 in test [1] was less than 500 nM; in test [2] it was less than 200 nM.

For `COc1cc(C(=O)NC[C@](O)(c2cc3c(c(-c4ccc5c(c4)OC(F)(F)O5)n2)OC[C@]3(C)C(N)=O)C2(F)CC2)cc2cc(C3CC3)nn12` [Example 716], the EC50 was less than 500 nM in test [1] and less than 200 nM in test [2].

As for `COc1cc(C(=O)NC[C@](O)(c2cc3c(c(-c4ccc5c(c4)OC(F)(F)O5)n2)OC[C@]3(C)C(N)=O)C2(F)CC2)cc2cc(Cl)c(C)nc12` [Example 717], the EC50 in test [1] is less than 500 nM; in test [2], less than 200 nM.

As for `COc1cc(C(=O)NC[C@](O)(c2cc3c(c(-c4ccc(F)c(Cl)c4)n2)OC[C@]3(C)C(N)=O)C2(F)CC2)cc2cc(C3CC3)nn12` [Example 718], the EC50 was greater than 500 nM in test [1] and less than 200 nM in test [2].

Turning to `COc1cc(C(=O)NC[C@](O)(c2cc3c(c(-c4ccc(F)c(Cl)c4)n2)OC[C@]3(C)C(N)=O)C2(F)CC2)cc2cc(Cl)c(C)nc12` [Example 719], the EC50 in test [1] is less than 500 nM; in test [2] it was less than 200 nM.

Take `COc1cc(C(=O)NC[C@](O)(c2cc3c(c(-c4ccc5c(c4)OC(F)(F)O5)n2)OC[C@]3(C)C(N)=O)C2(F)CC2)cc2cn(C(F)F)nc12` [Example 720]: the EC50 in test [1] was less than 500 nM; in test [2], less than 200 nM.
